From the NIST ThermoML archive (doi:10.1016/j.fluid.2013.07.008)
± gives the expanded uncertainty stated by the source.

Assay: xn = mol fraction of the nth substance listed
Conditions: Capillary rise

Compound: CC [ethane] + C
- surface tension liquid-gas (93.15 K, x2 = 0): 32.9 ± 1.6 mN/m
- surface tension liquid-gas (133.15 K, x2 = 0): 25.32 ± 1.3 mN/m
- surface tension liquid-gas (133.15 K, x2 = 0.194): 20.74 ± 1 mN/m
- surface tension liquid-gas (133.15 K, x2 = 0.414): 16.34 ± 0.82 mN/m
- surface tension liquid-gas (133.15 K, x2 = 0.527): 14.45 ± 0.72 mN/m
- surface tension liquid-gas (133.15 K, x2 = 0.821): 10.78 ± 0.54 mN/m
- surface tension liquid-gas (173.15 K, x2 = 0): 18.26 ± 0.91 mN/m
- surface tension liquid-gas (173.15 K, x2 = 0.133): 15.59 ± 0.78 mN/m
- surface tension liquid-gas (173.15 K, x2 = 0.139): 15.37 ± 0.77 mN/m
- surface tension liquid-gas (173.15 K, x2 = 0.256): 12.87 ± 0.65 mN/m
- surface tension liquid-gas (173.15 K, x2 = 0.421): 9.8 ± 0.49 mN/m
- surface tension liquid-gas (173.15 K, x2 = 0.429): 9.6 ± 0.48 mN/m
- surface tension liquid-gas (173.15 K, x2 = 0.459): 9.07 ± 0.46 mN/m
- surface tension liquid-gas (173.15 K, x2 = 0.565): 7.67 ± 0.39 mN/m
- surface tension liquid-gas (173.15 K, x2 = 0.587): 7.14 ± 0.36 mN/m
- surface tension liquid-gas (173.15 K, x2 = 0.684): 5.98 ± 0.3 mN/m
- surface tension liquid-gas (173.15 K, x2 = 0.691): 5.79 ± 0.29 mN/m
- surface tension liquid-gas (173.15 K, x2 = 0.793): 4.51 ± 0.23 mN/m
- surface tension liquid-gas (173.15 K, x2 = 0.818): 4.29 ± 0.22 mN/m
- surface tension liquid-gas (173.15 K, x2 = 0.821): 4.25 ± 0.22 mN/m
- surface tension liquid-gas (193.15 K, x2 = 0): 15.01 ± 0.75 mN/m
- surface tension liquid-gas (193.15 K, x2 = 0.134): 12.26 ± 0.62 mN/m
- surface tension liquid-gas (193.15 K, x2 = 0.16): 11.62 ± 0.58 mN/m
- surface tension liquid-gas (193.15 K, x2 = 0.284): 9.34 ± 0.47 mN/m
- surface tension liquid-gas (193.15 K, x2 = 0.287): 9.07 ± 0.46 mN/m
- surface tension liquid-gas (193.15 K, x2 = 0.395): 7.34 ± 0.37 mN/m
- surface tension liquid-gas (193.15 K, x2 = 0.501): 5.47 ± 0.28 mN/m
- surface tension liquid-gas (193.15 K, x2 = 0.672): 3.49 ± 0.18 mN/m
- surface tension liquid-gas (193.15 K, x2 = 0.685): 3.23 ± 0.17 mN/m
- surface tension liquid-gas (213.15 K, x2 = 0): 11.79 ± 0.59 mN/m
- surface tension liquid-gas (213.15 K, x2 = 0.024): 11.22 ± 0.56 mN/m
- surface tension liquid-gas (213.15 K, x2 = 0.116): 9.57 ± 0.48 mN/m
- surface tension liquid-gas (213.15 K, x2 = 0.17): 8.6 ± 0.43 mN/m
- surface tension liquid-gas (213.15 K, x2 = 0.238): 7.28 ± 0.37 mN/m
- surface tension liquid-gas (213.15 K, x2 = 0.447): 4.11 ± 0.21 mN/m
- surface tension liquid-gas (213.15 K, x2 = 0.539): 2.71 ± 0.14 mN/m
- surface tension liquid-gas (233.15 K, x2 = 0): 8.77 ± 0.44 mN/m
- surface tension liquid-gas (233.15 K, x2 = 0.075): 7.19 ± 0.36 mN/m
- surface tension liquid-gas (233.15 K, x2 = 0.143): 6.06 ± 0.31 mN/m
- surface tension liquid-gas (233.15 K, x2 = 0.153): 5.89 ± 0.3 mN/m
- surface tension liquid-gas (233.15 K, x2 = 0.214): 4.93 ± 0.25 mN/m
- surface tension liquid-gas (233.15 K, x2 = 0.228): 4.7 ± 0.24 mN/m
- surface tension liquid-gas (233.15 K, x2 = 0.292): 3.63 ± 0.19 mN/m
- surface tension liquid-gas (233.15 K, x2 = 0.297): 3.55 ± 0.18 mN/m
- surface tension liquid-gas (233.15 K, x2 = 0.362): 2.74 ± 0.14 mN/m
- surface tension liquid-gas (233.15 K, x2 = 0.369): 2.58 ± 0.14 mN/m
- surface tension liquid-gas (253.15 K, x2 = 0): 5.77 ± 0.29 mN/m
- surface tension liquid-gas (253.15 K, x2 = 0.048): 5.17 ± 0.26 mN/m
- surface tension liquid-gas (253.15 K, x2 = 0.099): 4.4 ± 0.22 mN/m
- surface tension liquid-gas (253.15 K, x2 = 0.145): 3.73 ± 0.19 mN/m
- surface tension liquid-gas (253.15 K, x2 = 0.196): 2.98 ± 0.15 mN/m
- surface tension liquid-gas (253.15 K, x2 = 0.241): 2.34 ± 0.12 mN/m
- surface tension liquid-gas (253.15 K, x2 = 0.242): 2.28 ± 0.12 mN/m
- surface tension liquid-gas (263.15 K, x2 = 0): 4.48 ± 0.23 mN/m
- surface tension liquid-gas (263.15 K, x2 = 0.048): 3.82 ± 0.2 mN/m
- surface tension liquid-gas (263.15 K, x2 = 0.098): 3.15 ± 0.16 mN/m
- surface tension liquid-gas (263.15 K, x2 = 0.142): 2.58 ± 0.13 mN/m
- surface tension liquid-gas (263.15 K, x2 = 0.185): 2.03 ± 0.11 mN/m
- surface tension liquid-gas (273.15 K, x2 = 0): 3.2 ± 0.16 mN/m
- surface tension liquid-gas (273.15 K, x2 = 0.035): 2.76 ± 0.14 mN/m
- surface tension liquid-gas (273.15 K, x2 = 0.083): 2.19 ± 0.12 mN/m
- surface tension liquid-gas (273.15 K, x2 = 0.124): 1.75 ± 0.1 mN/m
- surface tension liquid-gas (283.15 K, x2 = 0): 1.96 ± 0.11 mN/m
- surface tension liquid-gas (283.15 K, x2 = 0.017): 1.82 ± 0.1 mN/m
- surface tension liquid-gas (283.15 K, x2 = 0.045): 1.5 ± 0.08 mN/m
- surface tension liquid-gas (283.15 K, x2 = 0.065): 1.33 ± 0.08 mN/m
- surface tension liquid-gas (283.15 K, x2 = 0.067): 1.29 ± 0.07 mN/m

Compound: C [methane] + CC
- surface tension liquid-gas (93.15 K, x1 = 1): 16.69 ± 0.84 mN/m
- surface tension liquid-gas (133.15 K, x1 = 1): 8.78 ± 0.44 mN/m
- surface tension liquid-gas (173.15 K, x1 = 1): 2 ± 0.11 mN/m
